In paper PMC8402619 (Viruses, 2021):

How the values were obtained:
[1] = Plasma protein binding by equilibrium dialysis, human plasma; type: in vitro ADME
[2] = Plasma protein binding by equilibrium dialysis, rat plasma; type: in vitro ADME; conditions: pH 7.4
[3] = target: T1, recombinant human adenosine deaminase (ADA) (Homo sapiens, UniProt P00813); experiment: Metabolism and enzyme kinetics with recombinant human ADA; type: in vitro ADME
T1 construct: purchased Novus Biologicals, LLC

[4] = Renal clearance after 1 mg/kg intravenous, monkey; type: in vivo, rhesus monkeys; conditions: rhesus monkey, 1 mg/kg intravenously
CYP2C8 = target: T2, CYP2C8 (Homo sapiens, UniProt P10632); experiment: Time-dependent CYP inhibition in pooled human liver microsomes; type: in vitro ADME
T2 sequence (P10632 1-490): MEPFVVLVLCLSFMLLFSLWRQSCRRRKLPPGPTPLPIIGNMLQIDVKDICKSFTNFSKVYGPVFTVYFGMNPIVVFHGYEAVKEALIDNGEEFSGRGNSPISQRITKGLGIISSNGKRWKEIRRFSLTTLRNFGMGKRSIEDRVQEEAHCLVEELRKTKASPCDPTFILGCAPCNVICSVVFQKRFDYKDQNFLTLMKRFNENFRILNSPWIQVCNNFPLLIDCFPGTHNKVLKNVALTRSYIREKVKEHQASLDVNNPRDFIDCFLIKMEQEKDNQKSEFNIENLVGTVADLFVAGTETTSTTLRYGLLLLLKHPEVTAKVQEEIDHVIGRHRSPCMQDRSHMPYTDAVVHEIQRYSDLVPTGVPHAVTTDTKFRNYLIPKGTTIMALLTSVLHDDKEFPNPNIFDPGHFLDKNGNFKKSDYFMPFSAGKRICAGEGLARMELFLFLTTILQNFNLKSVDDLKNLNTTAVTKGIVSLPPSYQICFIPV

CYP2C9 = CYP2C9 (Homo sapiens, UniProt P11712); experiment: as above; type: in vitro ADME
Sequence of CYP2C9 (P11712 whole entry): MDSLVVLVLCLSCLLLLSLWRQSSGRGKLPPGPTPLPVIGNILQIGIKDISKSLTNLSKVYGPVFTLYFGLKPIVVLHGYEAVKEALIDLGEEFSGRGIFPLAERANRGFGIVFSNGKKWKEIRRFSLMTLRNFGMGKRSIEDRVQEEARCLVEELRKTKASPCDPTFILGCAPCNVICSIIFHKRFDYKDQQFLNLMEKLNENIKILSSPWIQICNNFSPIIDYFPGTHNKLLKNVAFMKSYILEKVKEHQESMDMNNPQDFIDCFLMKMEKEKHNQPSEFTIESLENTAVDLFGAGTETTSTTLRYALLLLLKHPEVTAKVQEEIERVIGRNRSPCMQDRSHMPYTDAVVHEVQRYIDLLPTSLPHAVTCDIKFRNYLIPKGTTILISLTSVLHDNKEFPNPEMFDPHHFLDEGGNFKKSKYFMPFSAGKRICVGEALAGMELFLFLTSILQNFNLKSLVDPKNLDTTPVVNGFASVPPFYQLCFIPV

OATP1B3 = target: T3, OATP1B3 (Homo sapiens, UniProt Q9NPD5); experiment: Inhibition of transporter-mediated probe uptake in HEK293-OATP1B3 cells; type: in vitro ADME
T3 construct: host or cells: HEK293
T3 sequence (Q9NPD5 1-702): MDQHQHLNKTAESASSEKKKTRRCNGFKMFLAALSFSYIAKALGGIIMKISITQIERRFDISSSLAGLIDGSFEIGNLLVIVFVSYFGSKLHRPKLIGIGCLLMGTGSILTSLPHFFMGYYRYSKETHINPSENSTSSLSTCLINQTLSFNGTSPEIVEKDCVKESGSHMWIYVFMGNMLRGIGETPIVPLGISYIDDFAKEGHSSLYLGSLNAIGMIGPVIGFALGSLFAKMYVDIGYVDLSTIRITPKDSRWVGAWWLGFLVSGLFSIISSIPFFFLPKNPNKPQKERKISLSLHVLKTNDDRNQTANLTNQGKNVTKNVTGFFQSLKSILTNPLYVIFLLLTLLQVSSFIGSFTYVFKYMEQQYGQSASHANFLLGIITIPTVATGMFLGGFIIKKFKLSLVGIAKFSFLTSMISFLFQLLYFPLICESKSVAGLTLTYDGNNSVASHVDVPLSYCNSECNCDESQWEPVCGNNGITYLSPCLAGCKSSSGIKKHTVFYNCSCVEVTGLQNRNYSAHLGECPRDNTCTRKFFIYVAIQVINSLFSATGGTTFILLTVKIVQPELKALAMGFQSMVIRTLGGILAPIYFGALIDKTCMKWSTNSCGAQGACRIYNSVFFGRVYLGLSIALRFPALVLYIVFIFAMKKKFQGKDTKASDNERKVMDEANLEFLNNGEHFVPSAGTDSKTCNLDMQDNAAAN

OAT1 = target: T4, OAT1 (Homo sapiens, UniProt Q4U2R8); experiment: Inhibition of transporter-mediated probe uptake in MDCKII-OAT1 cells; type: in vitro ADME
T4 construct: expressed in transfected cells; host or cells: MDCKII
T4 sequence (Q4U2R8 1-563): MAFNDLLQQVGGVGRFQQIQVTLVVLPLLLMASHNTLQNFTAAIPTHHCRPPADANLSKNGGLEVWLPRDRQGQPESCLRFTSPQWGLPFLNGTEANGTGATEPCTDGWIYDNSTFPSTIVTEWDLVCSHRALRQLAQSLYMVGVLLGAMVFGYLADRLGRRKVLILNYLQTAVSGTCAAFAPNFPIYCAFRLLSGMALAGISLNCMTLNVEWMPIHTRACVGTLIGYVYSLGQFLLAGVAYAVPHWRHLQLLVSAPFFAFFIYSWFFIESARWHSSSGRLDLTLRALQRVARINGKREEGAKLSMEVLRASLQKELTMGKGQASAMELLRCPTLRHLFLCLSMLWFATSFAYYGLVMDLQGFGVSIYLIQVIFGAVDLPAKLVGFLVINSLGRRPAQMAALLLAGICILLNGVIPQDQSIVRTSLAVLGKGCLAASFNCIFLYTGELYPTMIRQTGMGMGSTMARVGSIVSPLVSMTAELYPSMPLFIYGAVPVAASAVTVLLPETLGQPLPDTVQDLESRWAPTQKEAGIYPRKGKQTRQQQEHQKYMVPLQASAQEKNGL

MDR1 P-gp = MDR1 P-gp (Homo sapiens, UniProt P08183); type: in vitro ADME; design: expressed in transfected cells; host or cells: LLC-PK1
Sequence of MDR1 P-gp (P08183 whole entry): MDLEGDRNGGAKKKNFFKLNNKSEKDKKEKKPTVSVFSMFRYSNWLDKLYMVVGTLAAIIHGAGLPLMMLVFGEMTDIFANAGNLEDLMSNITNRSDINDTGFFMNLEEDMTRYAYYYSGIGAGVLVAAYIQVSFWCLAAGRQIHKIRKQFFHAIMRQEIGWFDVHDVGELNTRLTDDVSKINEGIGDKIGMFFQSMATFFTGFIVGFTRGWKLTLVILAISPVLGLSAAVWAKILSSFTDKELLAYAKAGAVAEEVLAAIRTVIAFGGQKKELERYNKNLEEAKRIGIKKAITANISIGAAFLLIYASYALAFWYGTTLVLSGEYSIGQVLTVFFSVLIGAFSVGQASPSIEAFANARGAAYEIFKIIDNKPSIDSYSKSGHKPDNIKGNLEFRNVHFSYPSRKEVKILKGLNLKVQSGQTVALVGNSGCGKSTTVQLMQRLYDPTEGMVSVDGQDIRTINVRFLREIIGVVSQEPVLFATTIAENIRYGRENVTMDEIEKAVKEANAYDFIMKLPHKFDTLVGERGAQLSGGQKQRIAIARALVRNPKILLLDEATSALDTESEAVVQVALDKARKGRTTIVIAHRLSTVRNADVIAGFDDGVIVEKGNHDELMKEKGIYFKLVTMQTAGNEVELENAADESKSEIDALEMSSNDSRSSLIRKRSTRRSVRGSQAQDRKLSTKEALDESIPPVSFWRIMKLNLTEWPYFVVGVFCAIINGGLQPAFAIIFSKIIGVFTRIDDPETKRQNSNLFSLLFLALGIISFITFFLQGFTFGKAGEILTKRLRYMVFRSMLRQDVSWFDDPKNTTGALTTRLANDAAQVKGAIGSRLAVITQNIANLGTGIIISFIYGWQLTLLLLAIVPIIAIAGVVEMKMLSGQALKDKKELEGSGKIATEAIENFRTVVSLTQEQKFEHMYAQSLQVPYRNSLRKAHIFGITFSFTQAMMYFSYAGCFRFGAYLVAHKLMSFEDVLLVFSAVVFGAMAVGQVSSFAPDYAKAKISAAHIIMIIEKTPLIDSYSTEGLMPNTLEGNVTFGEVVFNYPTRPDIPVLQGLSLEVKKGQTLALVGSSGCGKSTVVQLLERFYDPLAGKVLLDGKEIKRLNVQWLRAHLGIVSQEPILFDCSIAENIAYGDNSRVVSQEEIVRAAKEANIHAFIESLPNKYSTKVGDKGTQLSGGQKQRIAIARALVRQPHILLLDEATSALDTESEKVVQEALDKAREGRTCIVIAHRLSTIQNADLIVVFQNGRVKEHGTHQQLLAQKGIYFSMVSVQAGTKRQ

T1 sequence (P00813 whole entry): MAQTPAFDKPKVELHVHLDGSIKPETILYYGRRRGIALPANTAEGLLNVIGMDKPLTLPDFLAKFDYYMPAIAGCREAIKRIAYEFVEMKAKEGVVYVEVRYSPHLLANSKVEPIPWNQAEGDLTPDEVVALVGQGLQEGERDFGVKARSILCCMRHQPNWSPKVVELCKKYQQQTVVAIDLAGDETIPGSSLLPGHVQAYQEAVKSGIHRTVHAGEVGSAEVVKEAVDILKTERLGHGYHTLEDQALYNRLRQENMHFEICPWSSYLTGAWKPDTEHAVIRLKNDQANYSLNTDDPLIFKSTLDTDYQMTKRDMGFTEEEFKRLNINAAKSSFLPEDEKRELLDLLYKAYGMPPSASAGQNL

C#C[C@]1(CO)O[C@@H](n2cnc3c(N)nc(F)nc32)C[C@@H]1O [Islatravir, 4′-Ethynyl-2-fluoro-2′-deoxyadenosine]
concentration dependence of binding to plasma proteins ([1]; 0.1 to 10 µM, all species tested): did not exhibit concentration dependence
fraction unbound at 24 h, 0.1 µM ([1]; pH 7.4, human plasma, 0.1 µM islatravir, ± standard deviation): 0.96 ± 0.04
fraction unbound at 24 h, 0.1 µM [2]: > 0.84
ADA-dependent deamination ([3]; 50 µM, 3 h, 1 unit/mL recombinant human ADA): very slow ADA-dependent deamination to M4
Km ([3]; M4 formation, linear over 1-250 µM islatravir, read-out: Michaelis constant [Km]): > 250 µM
CL renal ([4]; plasma and urine, iv, urine 0-24 h): 8.7 mL/min/kg
Renal Excretion (% Total Plasma Clearance) [4]: 51%
time-dependent inhibition (CYP2C8; CYP2C8, pre-incubation of 10 and 50 µM for up to 30 min): no time-dependent inhibition
DDI Potential (CYP2C8; CYP2C8 time dependent inhibition): Low risk ^h
IC50 (CYP2C8; time dependent, CYP2C8, read-out: Islatravir IC50): > 50 µM
time-dependent inhibition (CYP2C9; CYP2C9, pre-incubation of 10 and 50 µM for up to 30 min): no time-dependent inhibition
DDI Potential (CYP2C9; CYP2C9 time dependent inhibition): Low risk ^h
IC50 (CYP2C9; time dependent, CYP2C9, read-out: Islatravir IC50): > 50 µM
IC50 (OATP1B3; OATP1B3-mediated uptake of sulfobromophthalein, read-out: Islatravir IC50): > 300 µM
Maximum Unbound Inlet Concentration (Iin,max,u) to IC50 Ratio (OATP1B3; OATP1B3, 60 mg dose): <0.035
DDI Potential (OATP1B3; OATP1B3 inhibition, FDA, EMA, PMDA guidance): Low risk
IC50 (OAT1; OAT1-mediated cidofovir uptake, read-out: Islatravir IC50): > 100 µM
Maximum Unbound Plasma Concentration (Imax,u) to IC50 Ratio (OAT1; OAT1, 60 mg, Cmax 1.01 µM, fu,p 0.96): <0.010 µM
DDI Potential (OAT1; OAT1 inhibition, FDA, EMA, PMDA guidance): Low risk
DDI Potential (MDR1 P-gp; MDR1 P-gp inhibition, FDA, EMA, PMDA guidance): Low risk
IC50 (MDR1 P-gp; MDR1 P-gp-mediated digoxin transport, read-out: Islatravir IC50): > 200 µM
Maximum Unbound Plasma Concentration (Imax,u) to IC50 Ratio (MDR1 P-gp; MDR1 P-gp, 60 mg, Cmax 1.01 µM, fu,p 0.96): <0.005 µM
Intestinal Concentration (Igut) to IC50 Ratio (MDR1 P-gp; MDR1 P-gp, Igut = 60 mg/250 mL = 818 µM): <4.1 µM
